Entries after “also recorded” stand apart in the source; their conditions may differ.
What was measured:
[1] = target: T1, human D2R (Homo sapiens, UniProt P14416); assay: D2R radioligand binding assay with [125I]IABN; conditions: human D2R transfected HEK293 cell membranes, mean ± SEM of three experiments
T1 construct: expressed in transfected cells; host or cells: HEK293
Protocol: (§1) The dopamine receptor binding assay was performed according to previous studies ([Luedtke et al., 2000]; [Vangveravong et al., 2006]; [Reilly et al., 2017]), and human D2R or D3R or D4 transfected HEK293 cells were used for dopamine receptor binding assay. The cells were grown in Dulbecco’s Modified Eagle Medium including 10% FBS, 0.1% Penn Strep, […] of geneticin (G418) for human D2R or D3R transfected HEK293 cells, and […] of puromycin for human D4 HEK293 cells at 5% CO2, 37°C. The cells were collected by centrifuge (6,000 × g, 10 min), and the supernatant was discarded. Cold homogenization buffer (50 mM Na Hepes, 0.1 mM EDTA, 1 mM DTT, pH 7.4) was added into the pellet and homogenized by a polytron (Brinkmann Instruments, Westbury, NY, United States), and centrifuged at 40,000 × g for 10 min. This process was repeated two more times to get final pellet, and the membranes were then resuspended with HB buffer including 5 mM MgCl2 and stored at −80°C until use.
(§2) HY-3-24 was prepared in 10^−5 to 10^−11 M concentration range with assay buffer (50 mM Tris–HCl, 150 mM NaCl, 10 mM EDTA, pH 7.5). […] The membrane was washed with cold buffer (three times), and collected filters were counted on a gamma counter (GMI, Minnesota, United States). The results were analyzed by nonlinear regression, and the data were reported mean ± SEM values by three independent experiments.

[2] = target: T2, human D4 (Homo sapiens, UniProt P21917); assay: D4R radioligand binding assay with [125I]IABN; conditions: human D4 transfected HEK293 cell membranes, mean ± SEM of three experiments
T2 construct: expressed in transfected cells; host or cells: HEK293
Protocol: as §1, §2

[3] = target: T3, sigma-1 (Cavia porcellus, UniProt Q60492); assay: Sigma-1 binding assay with [3H]-(+)-pentazocine; conditions: guinea pig brain homogenates
T3 construct: from tissue; host or cells: guinea pig brain homogenates
Protocol: The preparation of protein homogenates and sigma binding assay were conducted as described previously ([Luedtke et al., 2000]). For sigma-1 binding assay, [^3H]-(+)-pentazocine (50 μL, ~50,000 cpm) and HY-3-24 (concentrations ranging from 10^−5 to 10^−11 M) were mixed, guinea pig brain homogenates (100 μg/100 μL) were added and the mixture was incubated at 5% CO2, 37°C for 90 min. The assay was terminated by adding cold buffer (10 mM Tris–HCl, 150 mM NaCl, pH 7.5), and the mixture was filtered htrough Whatman CF/C filters (Brandel Inc., Maryland, United States) which were soaked in 1% polyethyleneimine (PEI). The collected filter was washed three times using cold buffer; non-specific binding was determined in the presence of 10 μM of haloperidol. The collected filters were mixed with 3 mL of microscint™20 by and counted overnight (1 min/well) using a beta counter (MicroBeta^2®, PerkinElmer, United Kingdom). The data were analyzed using PRISM 9.

[4] = target: T4, sigma-2 (Rattus norvegicus, UniProt Q5U3Y7); assay: Sigma-2 binding assay with [125I]RHM4; conditions: [125I]RHM4, rat liver homogenates
T4 construct: rat liver homogenates (15 μg/100 μL); from tissue; host or cells: rat liver homogenates
Protocol: For sigma-2 binding assay, HY-3-24 prepared in 10^−5 to 10^−11 M concentration range was mixed with [^125I]RHM4 (50 μL,~200,000 cpm) and rat liver homogenates (15 μg/100 μL). The mixture was vortexed briefly and incubated at room temperature (RT) for 90 min. The [^125I]RHM4-bound membrane was collected through Whatman CF/C filters by 24-well harvester (Brandel Inc., Maryland, United States), and washed with 4 mL of cold buffer. The filters were counted on a gamma counter (PerkinElmer, Massachusetts, United States). Cold RHM4 was used for defining non-specific binding. The Ki value was obtained by PRISM 9.

[5] = target: T5, human D3R (Homo sapiens, UniProt P35462); assay: β-arrestin recruitment assay for D3R; type: cell-based; parameters: expressed in transfected cells
Protocol: Chinese hamster ovary CHO-K1 cells (CHO-K1) which were over expressed human D3R were cultured in assaycomplete™ cell culture kit 107 (DiscoverX, Fremont, CA, United States). Cells were seeded at a density of 25,000 cells per well of 96-well plate, and incubated at 5% CO2, 37°C. After 46 h, HY-3-24 was (10^−5 to 10^−11) in phosphate-buffered saline (PBS) was added to the cells. The plates were incubated for 30 min at 5% CO2, 37°C for the agonist binding assay; for the antagonist assay, cells were treated with 30 nM (EC80) of dopamine and then the mixture was incubated for 90 min. PathHunter™ β-arrestin recruitment assay kit (DiscoverX, Fremont, CA, United States) was added to each well, and the plate was incubated for 80 min at RT under the dark condition. The chemiluminescent signal was measured on a PerkinElmer Enspire plate reader (PerkinElmer, Boston, MA, United States). Data were analyzed by Prism followed by non-linear regression.

[6] = target: T5, human D3R; assay: D3R radioligand binding assay with [125I]IABN; parameters: expressed in transfected cells; host or cells: HEK293
Protocol: as §1
HY-3-24 was prepared in 10^−5 to 10^−11 M concentration range with assay buffer (50 mM Tris–HCl, 150 mM NaCl, 10 mM EDTA, pH 7.5). Membrane homogenates (5–15 μg) and [^125I]IABN (approximately 0.5 nM) was added into serial dilutions of the compound and incubated at 37°C, for 60 min. Total binding volume was 150 μL, and 20 μM of (+)-butaclamol was used to define non-specific binding. Cold buffer (10 mM Tris–HCl, 150 mM NaCl, pH 7.5) was added into the reaction tube to terminate binding assay, and mixture was quickly filtered through a Schleicher and Schuell No.32 filter (GE Heathcare Bio-Sciences, Pittsburgh, PA, United States). The membrane was washed with cold buffer (three times), and collected filters were counted on a gamma counter (GMI, Minnesota, United States). The results were analyzed by nonlinear regression, and the data were reported mean ± SEM values by three independent experiments.

[7] = [125I]IABN, human D3R transfected HEK293 cell membranes, mean ± SEM of three experiments

T5 sequence (P35462 whole entry): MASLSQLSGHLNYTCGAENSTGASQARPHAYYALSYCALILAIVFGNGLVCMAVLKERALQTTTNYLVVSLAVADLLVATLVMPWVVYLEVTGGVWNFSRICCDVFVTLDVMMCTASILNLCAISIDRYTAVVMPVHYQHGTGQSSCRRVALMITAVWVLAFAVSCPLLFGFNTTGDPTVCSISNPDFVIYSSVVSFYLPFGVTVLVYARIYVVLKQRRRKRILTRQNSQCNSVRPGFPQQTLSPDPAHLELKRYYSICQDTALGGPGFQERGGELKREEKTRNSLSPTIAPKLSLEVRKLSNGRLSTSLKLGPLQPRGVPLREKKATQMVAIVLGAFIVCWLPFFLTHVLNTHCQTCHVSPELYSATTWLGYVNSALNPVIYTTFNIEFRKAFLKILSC
T3 sequence (Q60492 whole entry): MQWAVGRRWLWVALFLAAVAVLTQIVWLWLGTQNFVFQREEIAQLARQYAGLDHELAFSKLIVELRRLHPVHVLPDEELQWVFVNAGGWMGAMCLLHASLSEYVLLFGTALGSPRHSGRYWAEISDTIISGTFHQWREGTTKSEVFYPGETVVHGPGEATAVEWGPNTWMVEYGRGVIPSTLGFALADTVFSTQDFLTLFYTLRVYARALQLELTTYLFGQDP
T4 sequence (Q5U3Y7 whole entry): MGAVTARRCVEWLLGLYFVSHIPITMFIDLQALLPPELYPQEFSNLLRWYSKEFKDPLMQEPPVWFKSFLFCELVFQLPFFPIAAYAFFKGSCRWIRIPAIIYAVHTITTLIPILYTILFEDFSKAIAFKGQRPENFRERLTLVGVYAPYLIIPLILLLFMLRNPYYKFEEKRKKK
T2 sequence (P21917 whole entry): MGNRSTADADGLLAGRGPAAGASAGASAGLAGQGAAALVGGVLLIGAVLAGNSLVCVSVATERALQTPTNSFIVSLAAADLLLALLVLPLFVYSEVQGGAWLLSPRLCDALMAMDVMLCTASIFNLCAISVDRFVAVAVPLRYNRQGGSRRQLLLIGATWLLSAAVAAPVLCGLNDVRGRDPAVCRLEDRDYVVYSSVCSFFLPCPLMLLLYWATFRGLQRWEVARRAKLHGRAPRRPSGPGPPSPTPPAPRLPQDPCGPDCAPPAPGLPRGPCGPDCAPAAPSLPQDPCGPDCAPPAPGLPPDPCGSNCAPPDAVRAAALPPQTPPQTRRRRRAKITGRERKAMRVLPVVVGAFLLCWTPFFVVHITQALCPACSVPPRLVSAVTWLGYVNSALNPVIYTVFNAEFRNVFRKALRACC
T1 sequence (P14416 whole entry): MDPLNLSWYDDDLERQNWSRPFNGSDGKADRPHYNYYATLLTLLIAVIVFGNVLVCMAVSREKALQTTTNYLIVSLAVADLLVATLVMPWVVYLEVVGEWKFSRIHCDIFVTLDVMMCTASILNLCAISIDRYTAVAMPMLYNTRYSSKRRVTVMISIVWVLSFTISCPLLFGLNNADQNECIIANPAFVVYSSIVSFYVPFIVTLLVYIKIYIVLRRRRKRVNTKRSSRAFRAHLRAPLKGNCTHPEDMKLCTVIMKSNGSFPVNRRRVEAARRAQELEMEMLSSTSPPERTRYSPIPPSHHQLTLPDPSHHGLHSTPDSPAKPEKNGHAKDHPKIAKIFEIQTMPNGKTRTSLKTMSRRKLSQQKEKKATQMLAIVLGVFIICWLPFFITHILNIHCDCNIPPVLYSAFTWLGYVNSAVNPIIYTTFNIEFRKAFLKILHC

CCN(CCCNC(=O)c1ccc(-c2ccncc2)cc1)CCNC(=O)c1cc(I)cc(OC)c1OC [HY-3-24, N-(2-(Ethyl(3-(4-(pyridin-4-yl)benzamido)propyl)amino)ethyl)-5-iodo-2,3-dimethoxybenzamide]
Ki [1]: 86.7 ± 11.9 nM
Ki [2]: > 1000 nM
Ki D4R ([2]; listed as HY-2-34): negligible
binding to sigma-1 receptors [3]: did not bind
binding to sigma-1 receptors ([3]; listed as HY-2-34): low affinity
binding to sigma-2 receptors [4]: did not bind
binding to sigma-2 receptors ([4]; listed as HY-2-34): low affinity
EC50 β-arrestin recruitment D3R ([5]; agonist mode, 10^-5 to 10^-11 M, human D3R CHO-K1 cells): no β-arrestin recruitment; also recorded: N.A (not active)
IC50 ([5]; antagonist mode, vs 30 nM (EC80) dopamine, human D3R CHO-K1 cells): 1.5 ± 0.58 nM
functional mode at D3R ([5]; β-arrestin recruitment assay): antagonist
Ki [6, 7]: 0.67 ± 0.11 nM
Ki D3R [6, 7]: sub-nM affinity
selectivity for D3R vs. D2R ([6]; from Ki values, [125I]IABN): ~ 129 fold
D2/D3 ratio ([6]; ratio of Ki D2R to Ki D3R): 129

Reference: article PMC11036874, “In vitro characterization of [^125I]HY-3-24, a selective ligand for the dopamine D3 receptor” (Frontiers in Neuroscience, 2024)
